What was measured:
A2C12 = experiment: Western blot, semi-quantitative protein expression; type: cell-based, mouse
Experimental: (§1) For the Western Blot analysis, cells were rinsed and lysed as previously described. An amount of 25 µg protein was used for SDS-PAGE. Antibodies for c-Abl (sc-131), Actin (sc-1616), Cdc2-p34 (sc-8395), EPS15 (sc-1840), FAK (sc-558), c-Fos (sc-52), p38 (sc-7972), p53 (sc-6243) and STAT5 (sc-835x) were obtained from Santa Cruz (Santa Cruz Biotechnology, Heidelberg, Germany), while c-Src (2109) and phospho-Src Y416 (2101) were purchased from Cell Signaling (Cell Signaling Technology, Frankfurt a. M., Germany). The EGFR (06-847), phospho-EGFR Y992 (07-821) and phospho-EGFR Y1045 (04-284) stem from Upstate (Upstate, Schwalbach, Germany) and the hnRNP-K (A300-676A) from Bethyl Labs (Bethyl Laboratories, Montgomery, Texas, USA). Finally p73 (IMG-246) was supplied by Imgenex (Imgenex, Hamburg, Germany). Depending on the primary antibody the secondary antibodies were either horseradish peroxidase-conjugated anti-mouse (AP 160P), anti-rabbit (AP 132P) or anti-sheep (AP 147P) (Chemicon, Schwalbach, Germany).
(§2) Semi-quantitative analysis were carried out with Kodak 1D Image Analysis Software in reference to the vehicle treated control cells (see supplementary table S7).

BetaD5 = experiment: Western blot, semi-quantitative protein expression; type: cell-based, mouse
Experimental: as §1, §2

GammaA3 = experiment: Western blot, semi-quantitative protein expression; type: cell-based, mouse
Experimental: as §1, §2

GammaD12 = experiment: Western blot, semi-quantitative protein expression; type: cell-based, mouse
Experimental: as §1, §2

A549 = experiment: Whole genome expression analysis (Affymetrix microarray); type: cell-based, human
Experimental: (§3) The cells were harvested and RNA was isolated using RNeasy Mini Kit (Qiagen, Hilden, Germany) according to the instructions of the manufacturer. The isolated RNA (250 ng) was processed further using standard protocols as described recently with the exception of the 3′ IVT Express Kit (Affymetrix, High Wycombe, UK) that was utilized according to instructions. Quality control of cRNA was done with the Agilent 2100 Bioanalyzer (Agilent Tech according to manufacturer's protocols. Following fragmentation, cRNA of each sample was hybridized to Affymetrix GeneChip® Mouse Genome 430 2.0 or Human Genome U133 Plus 2.0 and scanned with an Affymetrix 3000 7G scanner.
(§4) The resultant data was normalized by Probe Logarithmic Intensity Error Estimation (PLIER) algorithm. Statistical analysis was carried out with the ArrayTrack software (National Center for Toxicological Research/FDA, Jefferson, AR, USA) using SAM algorithm.

CaCo2 = experiment: as above; type: cell-based, human
Experimental: as §3, §4

HepG2 = experiment: as above; type: cell-based, human
Experimental: as §3, §4

[1] = IC50 concentration, 96 h, SAM FDR<0.01, FC>2

Compound: Fc1ccccc1CNc1ncnc2c1cnn2CC(Cl)c1ccc(Br)cc1 (centres unmarked) [Si162]
- Actin protein expression (A2C12): 99
- EGFR Y992-p protein expression (A2C12): 16
- EGFR Y1045-p protein expression (A2C12): 0.417
- EGFR protein expression (A2C12): 23
- EPS15 protein expression (A2C12): 104
- FAK protein expression (A2C12): 52
- STAT5 protein expression (A2C12): 34
- c-Abl protein expression (A2C12): 50
- c-Fos protein expression (A2C12): 60
- c-Src protein expression (A2C12): 121
- hnRNP-K protein expression (A2C12): 60
- p38 protein expression (A2C12): 20
- p53 protein expression (A2C12): 131
- p73 protein expression (A2C12): 40
- Actin protein expression (BetaD5): 91
- EGFR Y992-p protein expression (BetaD5): 145
- EGFR Y1045-p protein expression (BetaD5): 733
- EGFR protein expression (BetaD5): 92
- EPS15 protein expression (BetaD5): 554
- FAK protein expression (BetaD5): 124
- STAT5 protein expression (BetaD5): 182
- c-Abl protein expression (BetaD5): 24
- c-Fos protein expression (BetaD5): 122
- c-Src Y416-p protein expression (BetaD5): 36
- c-Src protein expression (BetaD5): 110
- hnRNP-K protein expression (BetaD5): 20
- p38 protein expression (BetaD5): 39
- p53 protein expression (BetaD5): 443
- c-Src autophosphorylation (Tyr416), in words (BetaD5; IC50 concentration, 96 h): inhibition of c-Src autophosphorylation
- Actin protein expression (GammaA3): 83
- EGFR Y992-p protein expression (GammaA3): 77
- EGFR Y1045-p protein expression (GammaA3): 69
- EGFR protein expression (GammaA3): 1
- EPS15 protein expression (GammaA3): 90
- FAK protein expression (GammaA3): 111
- STAT5 protein expression (GammaA3): 46
- c-Abl protein expression (GammaA3): 1.79
- c-Src Y416-p protein expression (GammaA3): 205
- c-Src protein expression (GammaA3): 21
- hnRNP-K protein expression (GammaA3): 5
- p38 protein expression (GammaA3): 64
- p53 protein expression (GammaA3): 323
- Actin protein expression (GammaD12): 91
- EGFR Y992-p protein expression (GammaD12): 237
- EGFR Y1045-p protein expression (GammaD12): 309
- EGFR protein expression (GammaD12): 65
- EPS15 protein expression (GammaD12): 179
- FAK protein expression (GammaD12): 108
- STAT5 protein expression (GammaD12): 82
- c-Abl protein expression (GammaD12): 195
- c-Fos protein expression (GammaD12): 123
- c-Src Y416-p protein expression (GammaD12): 105
- c-Src protein expression (GammaD12): 56
- hnRNP-K protein expression (GammaD12): 85
- p38 protein expression (GammaD12): 43
- p53 protein expression (GammaD12): 154
- Acta2 (actin, alpha 2, smooth muscle, aorta) regulated gene, Si162 vs Ktr FC (A549): 2.46
- Birc5 (baculoviral IAP repeat-containing 5) regulated gene, Si162 vs Ktr FC (A549): -6.60
- Capn12 (calpain 12) regulated gene, Si162 vs Ktr FC (A549): 1.16
- Ccna2 (cyclin A2) regulated gene, Si162 vs Ktr FC (A549): -6.93
- Ccnb1 (cyclin B1) regulated gene, Si162 vs Ktr FC (A549): -5.43
- Ccnb2 (cyclin B2) regulated gene, Si162 vs Ktr FC (A549): -6.15
- Cdc2 (cell division cycle 2 (Cdk1)) regulated gene, Si162 vs Ktr FC (A549): -7.06
- Cdh1 (cadherin 1, type 1, E-cadherin (epithelial)) regulated gene, Si162 vs Ktr FC (A549): 1.36
- Cdkn1a (cyclin-dependent kinase inhibitor 1A (p21Cip1)) regulated gene, Si162 vs Ktr FC (A549): 2.54
- Cdkn3 (cyclin-dependent kinase inhibitor 3) regulated gene, Si162 vs Ktr FC (A549): -5.90
- Ceacam6 (carcinoembryonic antigen-related cell adhesion molecule 6) regulated gene, Si162 vs Ktr FC (A549): 3.24
- Cenpa (centromere protein A) regulated gene, Si162 vs Ktr FC (A549): -6.17
- Ctsb (cathepsin B) regulated gene, Si162 vs Ktr FC (A549): 1.38
- Dgka (diacylglycerol kinase, alpha 80kDa) regulated gene, Si162 vs Ktr FC (A549): 1.92
- E2F1 (E2F transcription factor 1) regulated gene, Si162 vs Ktr FC (A549): -6.54
- Fas (Fas (TNF receptor superfamily, member 6)) regulated gene, Si162 vs Ktr FC (A549): 2.18
- Fn1 (fibronectin 1) regulated gene, Si162 vs Ktr FC (A549): 1.40
- Gadd45a (growth arrest and DNA-damage-inducible, alpha) regulated gene, Si162 vs Ktr FC (A549): 1.46
- Gsk3b (glycogen synthase kinase 3 beta) regulated gene, Si162 vs Ktr FC (A549): 1.51
- Inpp5d (inositol polyphosphate-5-phosphatase, 145kDa) regulated gene, Si162 vs Ktr FC (A549): 2.27
- Itgb4 (integrin, beta 4) regulated gene, Si162 vs Ktr FC (A549): 1.48
- Jun (jun oncogene) regulated gene, Si162 vs Ktr FC (A549): 1.36
- Mdm2 (Mdm2 p53 binding protein homolog (mouse)) regulated gene, Si162 vs Ktr FC (A549): 1.96
- Plk1 (polo-like kinase 1 (Drosophila)) regulated gene, Si162 vs Ktr FC (A549): -2.12
- Ptgs2 (prostaglandin-endoperoxide synthase 2) regulated gene, Si162 vs Ktr FC (A549): 1.27
- Tgfb1i1 (transforming growth factor beta 1 induced transcript 1) regulated gene, Si162 vs Ktr FC (A549): 1.15
- Tuba1a (tubulin, alpha 1a) regulated gene, Si162 vs Ktr FC (A549): 1.06
- Vtn (vitronectin) regulated gene, Si162 vs Ktr FC (A549): 4.54
- Significantly differentially regulated genes, downregulated (number) (A549; [1]): 472
- Significantly differentially regulated genes, upregulated (number) (A549; [1]): 785
- Cav1 (caveolin 1, caveolae protein, 22kDa) regulated gene, Si162 vs Ktr FC (CaCo2): 2.45
- Ceacam6 (carcinoembryonic antigen-related cell adhesion molecule 6) regulated gene, Si162 vs Ktr FC (CaCo2): 1.49
- Mmp1 (matrix metallopeptidase 1 (interstitial collagenase)) regulated gene, Si162 vs Ktr FC (CaCo2): 1.71
- Pmaip1 (phorbol-12-myristate-13-acetate-induced protein 1 (Noxa)) regulated gene, Si162 vs Ktr FC (CaCo2): 1.12
- Tuba1a (tubulin, alpha 1a) regulated gene, Si162 vs Ktr FC (CaCo2): 1.01
- Vim (vimentin) regulated gene, Si162 vs Ktr FC (CaCo2): 1.80
- Significantly differentially regulated genes, downregulated (number) (CaCo2; [1]): 6
- Significantly differentially regulated genes, upregulated (number) (CaCo2; [1]): 75
- Akt2 (v-akt murine thymoma viral oncogene homolog 2) regulated gene, Si162 vs Ktr FC (HepG2): -4.47
- Bcl2l1 (BCL2-like 1) regulated gene, Si162 vs Ktr FC (HepG2): 1.08
- Birc5 (baculoviral IAP repeat-containing 5) regulated gene, Si162 vs Ktr FC (HepG2): -4.98
- Capn2 (calpain 2, (m/II) large subunit) regulated gene, Si162 vs Ktr FC (HepG2): 2.34
- Casp3 (caspase 3, apoptosis-related cysteine peptidase) regulated gene, Si162 vs Ktr FC (HepG2): 1.08
- Casp6 (caspase 6, apoptosis-related cysteine peptidase) regulated gene, Si162 vs Ktr FC (HepG2): 1.01
- Cdc2 (cell division cycle 2 (Cdk1)) regulated gene, Si162 vs Ktr FC (HepG2): -5.34
- Cdh1 (cadherin 1, type 1, E-cadherin (epithelial)) regulated gene, Si162 vs Ktr FC (HepG2): 1.32
- Cdkn1a (cyclin-dependent kinase inhibitor 1A (p21Cip1)) regulated gene, Si162 vs Ktr FC (HepG2): 1.62
- Cdkn2a (cyclin-dependent kinase inhibitor 2A (p16)) regulated gene, Si162 vs Ktr FC (HepG2): 2.03
- Cdkn2b (cyclin-dependent kinase inhibitor 2B (p15)) regulated gene, Si162 vs Ktr FC (HepG2): 3.43
- Cenpa (centromere protein A) regulated gene, Si162 vs Ktr FC (HepG2): -4.35
- Egfr (epidermal growth factor receptor) regulated gene, Si162 vs Ktr FC (HepG2): 1.36
- Fas (Fas (TNF receptor superfamily, member 6)) regulated gene, Si162 vs Ktr FC (HepG2): 2.46
- Grb10 (growth factor receptor-bound protein 10) regulated gene, Si162 vs Ktr FC (HepG2): 1.12
- Jun (jun oncogene) regulated gene, Si162 vs Ktr FC (HepG2): 1.14
- Mdm2 (Mdm2 p53 binding protein homolog (mouse)) regulated gene, Si162 vs Ktr FC (HepG2): 1.15
- Mmp3 (matrix metallopeptidase 3 (stromelysin 1, progelatinase)) regulated gene, Si162 vs Ktr FC (HepG2): 4.17
- Pdgfrb (platelet-derived growth factor receptor, beta polypeptide) regulated gene, Si162 vs Ktr FC (HepG2): -4.81
- Pmaip1 (phorbol-12-myristate-13-acetate-induced protein 1 (Noxa)) regulated gene, Si162 vs Ktr FC (HepG2): 1.37
- Tgfb1i1 (transforming growth factor beta 1 induced transcript 1) regulated gene, Si162 vs Ktr FC (HepG2): 1.86
- Tuba1a (tubulin, alpha 1a) regulated gene, Si162 vs Ktr FC (HepG2): 4.28
- Differentially expressed genes, total (number) (HepG2; IC50 concentration, 96 h): more than 1400
- Significantly differentially regulated genes, downregulated (number) (HepG2; [1]): 707
- Significantly differentially regulated genes, upregulated (number) (HepG2; [1]): 717
